# Columns and labels:
# [1] = Geometrical average of minimum inhibitory concentration was determined in isosensitest broth against gram-positive strains.; format: functional
# [2] = Geometrical average of minimum inhibitory concentration was determined in isosensitest broth against gram-negative strains.; format: functional
# Alcaligenes [3] = assay: Geometrical average of minimum bactericidal concentration was determined in isosensitest broth against Alcaligenes; format: functional
# Alcaligenes [4] = assay: Geometrical average of minimum inhibitory concentration was determined in isosensitest broth against Alcaligenes; format: functional
# Bacillus [5] = assay: Geometrical average of minimum bactericidal concentration was determined in isosensitest broth against Bacillus; format: functional
# Escherichia coli [6] = assay: Geometrical average of minimum bactericidal concentration was determined in isosensitest broth against Escherichia coli; format: functional
# Escherichia coli [7] = assay: Geometrical average of minimum inhibitory concentration was determined in isosensitest broth against Escherichia coli; format: functional
# Escherichia coli [8] = assay: In vivo protective dose was determined in infected swiss mice (120/strain) infected ip with Escherichia coli ISM with an inoculum size-0.5 mL of 10 E6 CFU/mL of suspension. Activity value range is 0.118-0.615; format: functional
# Escherichia coli [9] = assay: Minimum inhibitory concentration was determined against Escherichia coli ISM with an inoculum size-0.5 mL of 10 E6 CFU/mL of suspension; format: functional
# Enterobacter [10] = assay: Geometrical average of minimum bactericidal concentration was determined in isosensitest broth against Enterobacter; format: functional
# Enterobacter [11] = assay: Geometrical average of minimum inhibitory concentration was determined in isosensitest broth against Enterobacter; format: functional
# Klebsiella [12] = assay: Geometrical average of minimum bactericidal concentration was determined in isosensitest broth against Klebsiella; format: functional
# Klebsiella [13] = assay: Geometrical average of minimum inhibitory concentration was determined in isosensitest broth against Klebsiella; format: functional
# Klebsiella pneumoniae [14] = assay: In vivo protective dose was determined in infected swiss mice (120/strain) infected ip with Klebsiella pneumoniae 102 with an inoculum size-0.5 mL of 10 E5 CFU/mL of suspension. Activity value range is 1.82-7.92; format: functional
# Klebsiella pneumoniae [15] = assay: Minimum inhibitory concentration was determined against Klebsiella pneumoniae 102 with an inoculum size-0.5 mL of 10 E5 CFU/mL of suspension; format: functional
# Neisseria perflava [16] = assay: Geometrical average of minimum bactericidal concentration was determined in isosensitest broth against Neisseria perfl.; format: functional
# Neisseria perflava [17] = assay: Geometrical average of minimum inhibitory concentration was determined in isosensitest broth against Neisseria perfl.; format: functional
# Pseudomonas [18] = assay: Geometrical average of minimum bactericidal concentration was determined in isosensitest broth against Pseudomonas; format: functional
# Pseudomonas [19] = assay: Geometrical average of minimum inhibitory concentration was determined in isosensitest broth against Pseudomonas; format: functional
# Proteus [20] = assay: Geometrical average of minimum bactericidal concentration was determined in isosensitest broth against Proteus; format: functional, Proteus sp.
# Proteus [21] = assay: Geometrical average of minimum inhibitory concentration was determined in isosensitest broth against Proteus; format: functional, Proteus sp.
# Sarcina [22] = assay: Geometrical average of minimum bactericidal concentration was determined in isosensitest broth against Sarcina; format: functional
# Sarcina [23] = assay: Geometrical average of minimum inhibitory concentration was determined in isosensitest broth against Sarcina; format: functional
# Salmonella [24] = assay: Geometrical average of minimum bactericidal concentration was determined in isosensitest broth against Salmonella; format: functional
# Salmonella [25] = assay: Geometrical average of minimum inhibitory concentration was determined in isosensitest broth against Salmonella; format: functional
# Streptococcus [26] = assay: Geometrical average of minimum bactericidal concentration was determined in isosensitest broth against Streptococcus; format: functional
# Streptococcus [27] = assay: Geometrical average of minimum inhibitory concentration was determined in isosensitest broth against Streptococcus; format: functional
# Serratia [28] = assay: Geometrical average of minimum inhibitory concentration was determined in isosensitest broth against Serratia; format: functional
# Staphylococcus [29] = assay: (§1) Geometrical average of minimum inhibitory concentration was determined in isosensitest broth against Staphylococcus; format: functional
# Staphylococcus [30] = assay: (§2) Geometrical average of minimum bactericidal concentration was determined in isosensitest broth against Staphylococcus; format: functional
# Staphylococcus [31] = assay: as §2; format: functional; remark: listed apart in the source
# Serratia [32] = assay: Geometrical average of minimum bactericidal concentration was determined in isosensitest broth against Serratia; format: functional
# [33] = Geometrical average of minimum inhibitory concentration was determined in isosensitest broth against, gram-positive strains.; format: functional
# [34] = Geometrical average of minimum inhibitory concentration in isosensitest broth against, gram-negative strains.; format: functional
# Staphylococcus [35] = assay: as §1; format: functional; remark: listed apart in the source
# Bacillus [36] = assay: Geometrical average of minimum inhibitory concentration was determined in isosensitest broth against Bacillus; format: functional
# Alcaligenes [37] = assay: Geometrical average of minimum bactericidal concentration was determined in isosensitest against Alcaligenes; format: functional
# Bacillus [38] = assay: Geometrical average of minimum bactericidal concentration was determined in isosensitest against Bacillus; format: functional
# Escherichia coli [39] = assay: Geometrical average of minimum bactericidal concentration was determined in isosensitest broth against, Escherichia coli; format: functional
# Escherichia coli [40] = assay: In vivo protective dose was determined in infected swiss mice (120/strain) infected ip with Escherichia coli ISM with an inoculum size-0.5 mL of 10 E6 CFU/mL of suspension. Activity value range is 3.47-6.63; format: functional
# Escherichia coli [41] = assay: Minimum inhibitory concentration against, Escherichia coli ISM with an inoculum size-0.5 mL of 10 E6 CFU/mL of suspension); format: functional
# Enterobacter [42] = assay: Geometrical average of minimum bactericidal concentration was determined in isosensitest against Enterobacter; format: functional
# Klebsiella pneumoniae [43] = assay: In vivo protective dose was determined in infected swiss mice (120/strain) infected ip Klebsiella pneumoniae 102 with an inoculum size-0.5 mL of 10 E5 CFU/mL of suspension. Activity value range is 5.27-15.35; format: functional
# Klebsiella pneumoniae [44] = assay: Minimum inhibitory concentration against Klebsiella pneumoniae 102 with an inoculum size-0.5 mL of 10 E5 CFU/mL of suspension; format: functional
# Neisseria perflava [45] = assay: Geometrical average of minimum bactericidal concentration was determined in isosensitest against Neisseria perfl.; format: functional
# Sarcina [46] = assay: Geometrical average of minimum bactericidal concentration was determined in isosensitest against Sarcina; format: functional
# Sarcina [47] = assay: Geometrical average of minimum inhibitory concentration (MIC) in isosensitest broth against Sarcina; format: functional
# Salmonella typhimurium [48] = assay: Minimum inhibitory concentration against Salmonella Typhimurium T.O with an inoculum size-0.5 mL of 10 E6 CFU/mL of suspension; format: functional, Salmonella enterica subsp. enterica serovar Typhimurium; conditions: Salmonella enterica
# Streptococcus [49] = assay: Geometrical average of minimum bactericidal concentration was determined in isosensitest against Streptococcus; format: functional
# Staphylococcus [50] = assay: (§3) Geometrical average of minimum bactericidal concentration was determined in isosensitest against Staphylococcus; format: functional
# [51] = Geometrical average of minimum inhibitory concentration was determined in isosensitest broth against,gram-negative strains.; format: functional
# Salmonella typhimurium [52] = assay: In vivo protective dose was determined in infected swiss mice (120/strain) infected ip against Salmonella Typhimurium T.O with an inoculum size-0.5 mL of 10 E6 CFU/mL of suspension; format: functional, Salmonella enterica subsp. enterica serovar Typhimurium; conditions: Salmonella enterica
# Staphylococcus [53] = assay: as §3; format: functional; remark: listed apart in the source
smiles,measurement,setting,value
Cn1nnnc1SCC1=C(C(=O)O)N2C(=O)[C@@H](NC(=O)/C(=N/NCC(=O)O)c3csc(N)n3)[C@H]2SC1,MIC,[1],18 µg/mL
same,MIC,[2],8.59 µg/mL
Cn1nnnc1SCC1=C(C(=O)O)N2C(=O)[C@@H](NC(=O)/C(=N/NC(N)=O)c3csc(N)n3)[C@H]2SC1,MIC,[1],76.5 µg/mL
same,MIC,[2],16.8 µg/mL
Cn1nnnc1SCC1=C(C(=O)O)N2C(=O)[C@@H](NC(=O)/C(=N\NC(N)=O)c3csc(N)n3)[C@H]2SC1,MIC,[1],18.6 µg/mL
same,MIC,[2],3.54 µg/mL
CCOC(=O)CN/N=C(/C(=O)N[C@@H]1C(=O)N2C(C(=O)O)=C(CSc3nnnn3C)CS[C@H]12)c1csc(N)n1,MIC,[1],13.2 µg/mL
same,MIC,[2],5.45 µg/mL
CC(=O)OCC1=C(C(=O)O)N2C(=O)[C@@H](NC(=O)/C(=N/N)c3csc(N)n3)[C@H]2SC1,MIC,[1],7.35 µg/mL
same,MIC,[2],1.96 µg/mL
CO/N=C(\C(=O)N[C@@H]1C(=O)N2C(C(=O)O)=C(COC(C)=O)CS[C@H]12)c1csc(N)n1 [CEFOTAXIME],MBC,Alcaligenes [3],3.12 µg/mL
same,MIC,Alcaligenes [4],1.56 µg/mL
same,MBC,Bacillus [5],29.7 µg/mL
same,MBC,Escherichia coli [6],0.25 µg/mL
same,MIC,Escherichia coli [7],0.17 µg/mL
same,ED50,Escherichia coli [8],0.27 mg/kg
same,MIC,Escherichia coli [9],0.55 µg/mL
same,MBC,Enterobacter [10],1.97 µg/mL
same,MIC,Enterobacter [11],0.31 µg/mL
same,MBC,Klebsiella [12],0.14 µg/mL
same,MIC,Klebsiella [13],0.12 µg/mL
same,ED50,Klebsiella pneumoniae [14],3.8 mg/kg
same,MIC,Klebsiella pneumoniae [15],0.13 µg/mL
same,MBC,Neisseria perflava [16],< 0.09 µg/mL
same,MIC,Neisseria perflava [17],< 0.09 µg/mL
same,MBC,Pseudomonas [18],22.3 µg/mL
same,MIC,Pseudomonas [19],21.8 µg/mL
same,MBC,Proteus [20],0.3 µg/mL
same,MIC,Proteus [21],0.08 µg/mL
same,MBC,Sarcina [22],0.04 µg/mL
same,MIC,Sarcina [23],0.04 µg/mL
same,MBC,Salmonella [24],0.38 µg/mL
same,MIC,Salmonella [25],0.24 µg/mL
same,MBC,Streptococcus [26],35.4 µg/mL
same,MIC,Streptococcus [27],12.3 µg/mL
same,MIC,Serratia [28],0.09 µg/mL
same,MIC,Staphylococcus [29],1.61 µg/mL
same,MBC,Staphylococcus [30],25 µg/mL
same,MBC,Staphylococcus [31],3.23 µg/mL
same,MBC,Serratia [32],0.49 µg/mL
same,MIC,[33],2.09 µg/mL
same,MIC,[34],0.17 µg/mL
same,MIC,Staphylococcus [35],5.25 µg/mL
same,MIC,Bacillus [36],25 µg/mL
CO/N=C(\C(=O)N[C@@H]1C(=O)N2C(C(=O)O)=C(COC(N)=O)CS[C@H]12)c1ccco1 [CEFUROXIME],MBC,Alcaligenes [37],100 µg/mL
same,MIC,Alcaligenes [4],50 µg/mL
same,MBC,Bacillus [38],35.4 µg/mL
same,MBC,Escherichia coli [39],4.42 µg/mL
same,MIC,Escherichia coli [7],2.2 µg/mL
same,ED50,Escherichia coli [40],4.8 mg/kg
same,MIC,Escherichia coli [41],2.2 µg/mL
same,MBC,Enterobacter [42],25 µg/mL
same,MIC,Enterobacter [11],7.01 µg/mL
same,MBC,Klebsiella [12],4.68 µg/mL
same,MIC,Klebsiella [13],3.71 µg/mL
same,ED50,Klebsiella pneumoniae [43],9 mg/kg
same,MIC,Klebsiella pneumoniae [44],12.5 µg/mL
same,MBC,Neisseria perflava [45],0.78 µg/mL
same,MIC,Neisseria perflava [17],0.39 µg/mL
same,MBC,Pseudomonas [18],> 100 µg/mL
same,MIC,Pseudomonas [19],> 100 µg/mL
same,MBC,Proteus [20],3.9 µg/mL
same,MIC,Proteus [21],1.97 µg/mL
same,MBC,Sarcina [46],0.55 µg/mL
same,MIC,Sarcina [47],0.39 µg/mL
same,MBC,Salmonella [24],6.7 µg/mL
same,MIC,Salmonella typhimurium [48],1.56 µg/mL
same,MIC,Salmonella [25],3.12 µg/mL
same,MIC,Streptococcus [27],15.1 µg/mL
same,MBC,Streptococcus [49],59.5 µg/mL
same,MIC,Serratia [28],12.4 µg/mL
same,MIC,Staphylococcus [29],1.06 µg/mL
same,MBC,Serratia [32],28 µg/mL
same,MBC,Staphylococcus [50],1.67 µg/mL
same,MIC,[33],1.11 µg/mL
same,MIC,[51],10.6 µg/mL
same,MIC,Staphylococcus [35],10.5 µg/mL
same,MIC,Bacillus [36],35.4 µg/mL
same,ED50,Salmonella typhimurium [52],> 90 mg/kg
same,MBC,Staphylococcus [53],17.7 µg/mL
